Experimental data taken from patent publication US7871978B2, “Bone tropic peptides” (University of Virginia Patent Foundation, priority 2004, dated 2011).
Entries after “also recorded” stand apart in the source; their conditions may differ.

Tests used:
[1] = tested on: Membrane and cytosol fractions from bovine aortic endothelial cells; experiment: Affinity chromatography of BAEC fractions on immobilized peptide; type: binding; parameters: key to Identification of binding partners by affinity chromatography: BAEC: ✓: Check marks indicate positive binding observed with FITC; −: a dash indicates a negative result; conditions: cell lysates
Method: (§1) Membrane and cytosol fractions from human bone marrow endothelial cells and bovine aortic endothelial cells were prepared and used to identify the components from within these fractions that bind to the peptides using affinity chromatography). […] Cell surface nucleolin is present at higher concentrations in actively dividing cells and is down regulated in cells when they become quiescent. Nucleolin is the apparent cell surface receptor of E-coli intimin-gamma. Cell bound intimin has been proposed to trigger a host cell response similar to the extension of filipodia when cells bind to laminin. […] Table 3 provides a summary of peptide-binding partners (putative receptors) identified by affinity chromatography of cell lysates.

[2] = tested on: Membrane and cytosol fractions from human bone marrow endothelial cells; experiment: Affinity chromatography of HBME fractions on immobilized peptide; type: binding; parameters: key to Identification of binding partners by affinity chromatography: HBME: ✓: Check marks indicate positive binding observed with FITC; −: a dash indicates a negative result; conditions: for Identification of binding partners by affinity chromatography: HBME: cell lysates
Method: as §1
Peptide Affinity Column Chromatography: Peptides identified from the phage display experiments in mouse bone and bone marrow were synthesized with an additional three-residue glycine linker and an N-terminal lysine residue. The lysine residue was used to specifically link the peptides to a support. Cell membranes from BMECs were solubilized with triton X-100. The solubilized proteins were passed through the peptide affinity column (total volume, 500 μL) followed by extensive washes with buffer. Retained proteins were eluted either with 100 mM solution of the same peptide as that immobilized on the column or with a wash of 0.1 N HCl-Glycine, pH 2.2. The eluates were analyzed by SDS PAGE and proteins observed in the gels were identified by LC/MS/MS.

[3] = tested on: human bone marrow endothelial cells (HBME); experiment: Peptide binding to HBME cells in culture (Avidin-FITC); parameters: key: ✓: Check marks indicate positive binding observed with FITC; −: a dash indicates a negative result
Method: (§2) For localization of peptide binding to cells and tissue sections, biotinylated peptides were synthesized. Fluorescein-isothiocyanate (FITC) labeled Avidin was used to localize the peptides on cells in culture and in tissue sections in vitro by epiluminescence microscopy. In addition, the biotinylated peptides were detected at concentrations as low as 1 μM in slot blots.
(§3) Bone marrow cells isolated from mouse femur were lifted with ethylenediaminetetraacetic acid (EDTA) and trypsin, resuspended, and allowed to attach on fibronectin-coated chamber slides for Avidin-FITC staining. […] The D1 cell is a multipotential mesenchymal stem-like line that was isolated from bone marrow and shown to have the characteristics of osteoprogenitor cells. This cell line has been well established and used successfully in several in vitro and in vivo studies in our laboratory. Peptide binding to human bone marrow endothelial cells (HBME) and bovine aortic endothelial cells (BAEC) in culture was also tested using the same procedure.

D1 cells = experiment: Peptide binding to D1 bone marrow mesenchymal cells; conditions: for Binding to D1 cells: FIG. 4; for Binding to cells from the skeleton in vitro: mesenchymal cells from bone marrow (D1), or human bone marrow endothelial cells, avidin-FITC probe
Excerpt: as §3
The peptides were ranked based on the frequency with which they occurred in the plaques from which DNA was prepared and sequenced. Four of the sequences (L13, L19, R1, and R3) were synthesized as biotinylated peptide or as the control non biotinylated version of the sequence. […] The cells used in these experiments were mesenchymal cells from bone marrow (D1), or human bone marrow endothelial cells. An avidin-FITC probe detected the biotinylated peptide in areas of the cells in culture representing either extrusions from the cells or at the end of cell processes; structures reminiscent of adhesion plaques or footprints.

[4] = tested on: Bone marrow cells isolated from mouse femur; experiment: Peptide binding to bone marrow cells in culture (Avidin-FITC); parameters: key to Localization of peptide binding: Marrow (cells in culture): ✓: Check marks indicate positive binding observed with FITC; −: a dash indicates a negative result; conditions: for Localization of peptide binding: Marrow (cells in culture): FITC; for Binding to adherent cells from bone marrow blowouts: fibronectin-coated chamber slides, Avidin-FITC staining
Method: as §2, §3

[5] = tested on: bone marrow derived mesenchymal stem cells; experiment: Microarray gene expression analysis of peptide-treated mesenchymal stem cells; type: cell-based; conditions: 100 μM/ml peptide, day 7, microarray
Method: For gene analysis, the bone marrow derived mesenchymal stem cells were seeded at 95,000 cells per well in a 6 well plate and maintained in culture media containing 100 μM/ml of each of the 13 peptides. The media were changed every three days. The cells were harvested at day 7, total RNA isolated using the Qiagen RNeasy kit and quantified with a spectrophotometer. After initial screening of the genes with real-time PCR, four peptides were chosen for microarray analysis: L13, L19, R1, and R3 (SEQ ID NOs: 8, 10, 11, and 13, respectively).

[6] = tested on: prostate cancer cells (CaP); experiment: Prostate cancer (CaP) cell adhesion to BMEC, cell line not distinguished; type: cell-based; conditions: for Effect on CaP cell adhesion to BMEC: LNCaP compared to C4-2, FIG. 8, preliminary results
Method: FIG. 8 is a graphic representation of the effects of various peptides on altering cellular adhesion to BMEC cells in vitro. LNCaP cells were compared directly to C4-2 cells for the ability of specific phage-derived peptides to alter cellular adhesion to BMEC cells in vitro. Adhesion was measured at […]. C=control (no peptide). The ordinate represents percent of acid precipitable counts bound and the abscissa indicated the cells treated and the peptides used.
The phage-derived bone-targeting peptides isolated by biopanning were tested for their ability to alter the adhesion of prostate cancer cells to a human bone marrow endothelial cell line (see FIG. 8). In this assay, LNCaP cells were compared directly to the more metastatic, bone colonizing derivative, C4-2.
This observation will be examined further and exploited by the aims of this proposal to identify the binding partners of nucleolin in prostate cancer cells as well as to investigate bone tropic peptides as potential inhibitors of prostate cancer metastasis.

Substance	Identification of binding partners by affinity chromatography: BAEC [1]	Identification of binding partners by affinity chromatography: HBME [2]	Binding to D1 cells (D1 cells)	Binding to cells from the skeleton in vitro (D1 cells)	Localization of peptide binding: Marrow (cells in culture) [4]	Binding to adherent cells from bone marrow blowouts [4]	Effect on CaP cell adhesion to BMEC [6]	further results
ASN-SER-MET-ILE-ALA-HIS-ASN-LYS-THR-ARG-MET-HIS-GLY-GLY-GLY-SER (NSMIAHNKTRMHGGGS; listed as Homo sapiens) [Peptide L7]	−	−						
SER-GLY-HIS-GLN-LEU-LEU-LEU-ASN-LYS-MET-PRO-ASN-GLY-GLY-GLY-SER (SGHQLLLNKMPNGGGS; listed as Homo sapiens) [Peptide L13]	−	✓Nucleolin	bind to D1 cells	found to bind cells from the skeleton	✓	showed detectable binding	consistent suppression of CaP cell invasion that was saturated at the doses tested; also recorded: inhibits CaP cell adhesion to bone marrow endothelial cells	Localization of peptide binding: HBME [3]: ✓; Fold Change: Ameloblastin [5]: +3.73 fold; Fold Change: Cartilage link protein 1 [5]: +2.00 fold; Fold Change: Eph receptor A5 [5]: +4.92 fold; Fold Change: Fibronectin 1 [5]: −2.64 fold; Fold Change: Hypothetical protein MGC28705 [5]: +4.59 fold; Fold Change: Neural cell adhesion molecule 2 [5]: +6.96 fold; Fold Change: Procollagen, type I, alpha 1 [5]: +3.03 fold; Fold Change: RIKEN cDNA 2410129E14 gene [5]: +3.03 fold; Fold Change: Syndecan 4 [5]: +3.03 fold; Fold Change: Thyroid hormone receptor alpha [5]: −1.23 fold; Fold Change: v-raf-1 leukemia viral oncogene 1 [5]: +2.46 fold; Binding partner from HBME / bone marrow endothelial cells ([2]; biotinylated peptide immobilized on avidin-agarose): nucleolin was the major component that binds; Concentrations at which peptide inhibits prostate cancer cell adhesion to BMEC ([6]; 50 μM and 100 μM tested): at both 50 μM and 100 μm
ASN-TYR-SER-HIS-LEU-ARG-VAL-LYS-LEU-PRO-THR-PRO-GLY-GLY-GLY-SER (NYSHLRVKLPTPGGGS; listed as Homo sapiens) [Peptide R1]			bind to D1 cells	found to bind cells from the skeleton	✓	showed detectable binding	did not show remarkable activity	
